Source: patent US20130129656A1, “"GREEN" DIESTER AMINES AND PERSONAL CARE PRODUCTS” (CRODA, INC., priority 2010, published 2013)

What was measured:
[1] = Warehouse storage stability of flaked samples in a stability oven at 95° F; assay type: physicochemical; details: flaked sample, stability oven set at 95° F, after 8 weeks
Procedure: The diester compositions may be blended with, for example, alkylamidopropyl dimethylamines, such as Incromine BD supplied by Croda Inc., to yield a waxy flakeable or pastillatable composition with improved high temperature warehouse storage stability. Stability in this case being defined as resistance of the waxy particles from fusing together at elevated warehouse storage temperatures of about 95° F. Additional information on flakeability/pastillatability can be found in U.S. Pat. No. 6,638,497, the disclosure of which is hereby incorporated by reference herein.
In some embodiments, it is desirable that the diesters of the claimed invention be either liquids or waxy solids in pastille form at room temperature for ease of use. […] By adding behenamidopropydimethylamine, the high temperature storage stability of the diester was increased, allowing for it to be warehoused or transported in conditions were the temperature can exceed 95° F. without the pastilles fusing together.

[2] = Wet combing evaluation of lotions (combing force reduction)
Procedure: Lotions with and without Example 3 Quat were prepared and evaluated for combing force reduction.

daphnia magna = assay: Aquatic toxicity via method OECD 202 (Daphnia sp. Acute Immobilization Test); assay type: in vivo; details: OECD 202, daphnia magna
Procedure: In some embodiments, the compounds of the present invention are believed to have low aquatic toxicities. […] […] The testing methodology is described in “OECD Guideline for Testing of Chemicals,” section 202, the disclosure of which is incorporated by reference.
(§1) Quat from example 3 was tested for biodegradability via method OECD 301B and Aquatic Toxicity via method OECD 202.

[3] = Biodegradability via method OECD 301B; details: after 29 days
Description: In some embodiments, the compounds of the present invention are biodegradable as provided by standardized OECD 301B testing. The testing methodology is described in the “OECD Guideline for Testing Chemicals,” section 301, the disclosure of which is incorporated by reference. Specifically, the compounds of the present invention showing a biodegradability of at least about 50% according to the OECD 301B testing method. In some embodiments, the compounds of the present invention have a biodegradability of between about 50% to about 81% according to the OECD 301B testing method.
as §1

[4] = wet combing, lotion with 1.5 % Example 3 Quat, average of 10 tresses

Substance: Methosulfate QUAT of PPG-6 N-Methyldiethanolamine Di-Behenate [Example 3]
- Warehouse storage stability (state of flakes) [1]: fused together
- Conditioning (in words) ([2]; lotion with the quat, versus lotion without): improved conditioning
- % Change of Combing Force (gmf) [2, 4]: −84.62%
- % Change of Total Work Done (Joules) [2, 4]: −88.76%
- 48 hour EC50 (aquatic toxicity) (daphnia magna): > 100 mg/L
- Biodegraded [3]: 67%
